Results: patent US6242600A, “2-piperazinone-1-acetic acid derivatives and their use” (Takeda Chemical Industries, Ltd., priority 1997, dated 2001)

These compounds were tested on platelet aggregation induced by ADP (platelet rich plasma) (assay: Inhibitory Effect on Platelet Aggregation in Guinea Pigs (induced by ADP)). Settings: Cavia porcellus; guinea pig platelet rich plasma, about 400,000 platelets/μl, 37° C., ADP final concentration 1 μM, test drug added 2 minutes before ADP; read-out: Inhibition of platelet aggregation by ADP, IC50.
Assay type: cell-based
Description: Blood was collected from abdominal aorta of male guinea pigs under anesthesia with pentobarbital (20 mg/kg, i.p.) using sodium citrate as an anticoagulant (final concentration: 0.315%). The sodium citrate-supplemented blood was centrifuged at 1000 g for […] to obtain platelet rich plasma (PRP), which was further centrifuged at 1000 g for 10 minutes respectively at room temperature to obtain platelet poor plasma (PPP). The number of platelet was counted at automatic platelet counter (Sysmex E2500, Toaiyo-denshi). PRP was diluted with PPP to adjust the number of platelets to be about 400,000/μl. Platelet aggregation was measured as follows, using an 8-channel aggregometer (NBS HEMA TRACER VI, Niko Bioscience Inc.): The PRP (250 μl) was incubated at 37° C. for 2 minutes, to n added 25 μl of a test drug solution. Two minutes later, 25 μl of an agent (ADP; finalconcentration: 1 μM) for causing agglutination. The effect of the test drug was shown by the inhibition rate of the maximum aggregation rate of the test group against that of the control group.

| SMILES | IC50 [nM] |
| --- | --- |
| COC(=O)C[C@H]1C(=O)N(CC(=O)OC)CCN1C(=O)CCC(=O)N1CCN(c2ncccn2)CC1 [compound 14] | 75 |
| COC(=O)C[C@H]1C(=O)N(CC(=O)O)CCN1C(=O)[C@@H](CC(=O)N1CCN(c2ccncc2)CC1)NS(=O)(=O)c1ccc(OC)cc1 [compound 31] | 60 |
| COC(=O)C[C@H]1C(=O)N(CC(=O)OC)CCN1C(=O)CCC(=O)N1CCN(c2ccccn2)CC1 [compound 12] | 38 |
| COC(=O)C[C@H]1C(=O)N(CC(=O)O)CCN1C(=O)[C@H](CC(=O)N1CCN(c2ccncc2)CC1)NCc1ccc(OC)cc1 [compound 36] | 220 |
| COC(=O)C[C@H]1C(=O)N(CC(=O)O)CCN1C(=O)[C@H](CC(=O)N1CCN(c2ccncc2)CC1)NC(=O)OC [compound 24] | 62 |
| COC(=O)C[C@H]1C(=O)N(CC(=O)OC(C)(C)C)CCN1C(=O)[C@H](CC(=O)N1CCN(c2ccncc2)CC1)NC(=O)OC(C)(C)C [compound 20] | 44 |
| CN[C@H](CC(=O)N1CCN(c2ccncc2)CC1)C(=O)N1CCN(CC(=O)O)C(=O)[C@@H]1CC(=O)OC [compound 40] | 58 |
| COC(=O)C[C@H]1C(=O)N(CC(=O)O)CCN1C(=O)[C@@H](CC(=O)N1CCN(c2ccncc2)CC1)NC(=O)OCOC(=O)C(C)(C)C [compound 43] | 99 |
| COC(=O)C[C@H]1C(=O)N(CC(=O)O)CCN1C(=O)[C@H](Cc1ccc(OC)cc1)NC(=O)C1CCN(c2ccncc2)CC1 [compound 9] | 70 |
| COC(=O)C[C@H]1C(=O)N(CC(=O)O)CCN1C(=O)[C@H](CC(=O)N1CCN(c2ccncc2)CC1)NS(=O)(=O)c1ccc(OC)cc1 [compound 33] | 240 |
